# Key:
# Experiment in all cases: relative viability (nuclei count vs DMSO), 5 days (fraction); higher = more cells survive
# Apatinib + Phenformin = compound: N#CC1(c2ccc(NC(=O)c3cccnc3NCc3ccncc3)cc2)CCCC1 [Apatinib] + N=C(N)NC(=N)NCCc1ccccc1 [Phenformin] (partner 250 µM)
# Outline: (§1)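 Values are medians from duplicate plates. Each reflects relative viability, defined as the nuclei count of treated wells over that of vehicle wells. Lung cancer cell lines in 1536-well plates were pin-tool dosed one day after seeding with one drug alone or with a fixed anchor-drug dose plus five library-drug doses (not always all listed) in √10 steps, then fixed, stained and imaged at 4× after 5 days.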
# Metformin + AZD7762 = compound: CN(C)C(=N)NC(=N)N [Metformin] + NC(=O)Nc1cc(-c2cccc(F)c2)sc1C(=O)N[C@H]1CCCNC1 [AZD7762] (partner 0.2 µM)
# Outline: as §1
# Metformin + Trametinib = compound: CN(C)C(=N)NC(=N)N [Metformin] + CC(=O)Nc1cccc(-n2c(=O)n(C3CC3)c(=O)c3c(Nc4ccc(I)cc4F)n(C)c(=O)c(C)c32)c1 [Trametinib] (partner 0.02 µM)
# Outline: as §1
# Metformin + Pictilisib = compound: CN(C)C(=N)NC(=N)N [Metformin] + CS(=O)(=O)N1CCN(Cc2cc3nc(-c4cccc5[nH]ncc45)nc(N4CCOCC4)c3s2)CC1 [Pictilisib] (partner 1 µM)
# Outline: as §1
Cell Line,relative viability (Apatinib + Phenformin; first compound 0.08 µM),relative viability (Apatinib + Phenformin; first compound 0.253 µM),relative viability (Apatinib + Phenformin; first compound 0.8 µM),relative viability (Apatinib + Phenformin; first compound 2.53 µM),relative viability (Apatinib + Phenformin; first compound 8 µM),relative viability (Metformin + AZD7762; first compound 10 µM),relative viability (Metformin + AZD7762; first compound 31.62 µM),relative viability (Metformin + AZD7762; first compound 100 µM),relative viability (Metformin + AZD7762; first compound 316.23 µM),relative viability (Metformin + AZD7762; first compound 1000 µM),relative viability (Metformin + Trametinib; first compound 10 µM),relative viability (Metformin + Trametinib; first compound 31.62 µM),relative viability (Metformin + Trametinib; first compound 100 µM),relative viability (Metformin + Trametinib; first compound 316.23 µM),relative viability (Metformin + Trametinib; first compound 1000 µM),relative viability (Metformin + Pictilisib; first compound 10 µM),relative viability (Metformin + Pictilisib; first compound 31.62 µM),relative viability (Metformin + Pictilisib; first compound 100 µM),relative viability (Metformin + Pictilisib; first compound 316.23 µM),relative viability (Metformin + Pictilisib; first compound 1000 µM)
NCI-H2126,0.564,0.501,0.512,0.521,0.523,0.953,0.963,0.916,0.92,0.935,0.517,0.538,0.563,0.504,0.587,0.519,0.474,0.514,0.472,0.485
CAL-12T,0.636,0.638,0.565,0.542,0.467,0.659,0.718,0.638,0.646,0.659,0.357,0.443,0.404,0.432,0.452,0.423,0.511,0.527,0.415,0.518
NCI-H358,0.316,0.353,0.321,0.377,0.383,0.619,0.449,0.461,0.519,0.532,0.12,0.128,0.139,0.137,0.157,0.356,0.424,0.44,0.332,0.378
HCC-44,0.153,0.17,0.309,0.22,0.203,,1,1.01,0.994,1.02,,1.04,1.12,0.931,0.989,0.682,0.771,0.734,0.63,0.7
EKVX,0.233,0.228,0.234,0.216,0.234,,0.69,0.795,0.609,0.674,,0.196,0.354,0.265,0.334,0.404,0.392,0.453,0.414,0.392
NCI-H1734,0.401,0.481,0.381,0.342,0.353,0.61,0.542,0.541,0.579,0.53,0.652,0.763,0.653,0.662,0.726,0.464,0.48,0.462,0.407,0.495
NCI-H1395,0.464,0.419,0.454,0.412,0.459,0.415,0.389,0.41,0.428,0.41,0.945,1.05,0.896,0.974,0.756,0.64,0.728,0.653,0.81,0.593
SW 900,0.714,0.606,0.54,0.362,0.425,0.666,0.624,,0.537,0.761,1.09,1.07,,0.825,1.2,,,,,
NCI-H1975,0.425,0.387,0.382,0.389,0.433,0.772,0.734,0.681,0.689,0.637,0.356,0.325,0.387,0.326,0.373,0.285,0.327,0.306,0.314,0.321
Calu-6,,,,,,,,,,,,,,,,0.733,0.886,0.769,0.531,0.413
EBC-1,,,,,,,,,,,,,,,,0.508,0.444,0.467,0.306,0.313
NCI-H1792,0.5,0.227,0.235,0.111,0.184,0.598,0.667,0.539,0.56,0.796,0.566,0.483,0.567,0.431,0.433,,0.398,0.393,0.47,0.428
NCI-H596,0.801,0.724,0.723,0.705,0.711,1.18,1.13,1.3,1.08,1.23,0.965,0.899,1.01,0.706,0.872,0.431,0.479,0.468,0.452,0.421
NCI-H1650,,0.503,0.35,0.35,0.318,,,,,,0.597,0.602,0.718,0.474,0.458,0.791,0.702,0.721,0.607,0.504
NCI-H1944,0.209,0.207,0.179,0.18,0.159,0.406,0.586,0.48,0.626,0.527,0.37,0.412,0.38,0.365,0.415,0.324,0.351,0.371,0.293,0.338
HCC-827,0.4,0.406,0.212,0.382,0.351,0.245,0.174,0.257,0.217,0.36,0.575,0.567,0.616,0.577,0.605,,0.914,1.13,0.996,1.15
NCI-H441,0.849,0.762,0.827,0.784,0.76,,0.7,1.05,0.982,1.06,,0.575,0.573,0.442,0.639,0.527,,0.499,0.394,0.589
LCLC-103H,0.363,0.31,0.316,0.297,0.308,0.714,0.852,0.748,0.663,0.883,0.72,0.672,0.745,0.696,0.684,0.713,0.717,0.711,0.669,0.607
HARA,0.424,0.455,0.391,0.28,0.298,0.279,0.47,0.362,0.293,0.287,1.45,1.35,1.27,1.22,1.13,0.504,0.468,0.497,0.496,0.46
201T,0.481,0.448,0.413,0.33,0.405,,0.5,0.581,0.476,0.609,,0.679,0.735,0.684,0.681,,0.709,0.701,0.688,0.685
NCI-H2009,0.494,0.497,0.382,0.264,0.219,,,,,,0.366,0.362,0.387,0.36,0.384,0.795,0.922,0.846,0.779,0.763
HCC-78,0.644,0.607,0.691,0.605,0.618,,0.99,0.946,0.846,0.917,,1.3,1.15,1.1,0.541,0.291,0.257,0.201,0.159,0.244

Cell Line,relative viability (Apatinib + Phenformin; first compound 0.08 µM),relative viability (Apatinib + Phenformin; first compound 0.253 µM),relative viability (Apatinib + Phenformin; first compound 0.8 µM),relative viability (Apatinib + Phenformin; first compound 2.53 µM),relative viability (Apatinib + Phenformin; first compound 8 µM),relative viability (Metformin + AZD7762; first compound 10 µM),relative viability (Metformin + AZD7762; first compound 31.62 µM),relative viability (Metformin + AZD7762; first compound 100 µM),relative viability (Metformin + AZD7762; first compound 316.23 µM),relative viability (Metformin + AZD7762; first compound 1000 µM),relative viability (Metformin + Trametinib; first compound 10 µM),relative viability (Metformin + Trametinib; first compound 31.62 µM),relative viability (Metformin + Trametinib; first compound 100 µM),relative viability (Metformin + Trametinib; first compound 316.23 µM),relative viability (Metformin + Trametinib; first compound 1000 µM),relative viability (Metformin + Pictilisib; first compound 10 µM),relative viability (Metformin + Pictilisib; first compound 31.62 µM),relative viability (Metformin + Pictilisib; first compound 100 µM),relative viability (Metformin + Pictilisib; first compound 316.23 µM),relative viability (Metformin + Pictilisib; first compound 1000 µM)
LCLC-97TM1,0.411,0.409,0.424,0.404,0.37,0.205,0.244,0.205,0.27,0.306,,0.207,0.247,0.174,0.229,0.257,0.196,0.255,0.234,0.223
NCI-H661,0.279,0.273,0.273,0.263,0.277,,,,,,0.54,0.643,0.575,0.527,0.586,0.406,0.464,0.485,0.552,0.518
COR-L23,0.5,0.421,0.427,0.395,0.438,,,,,,0.538,0.506,0.5,0.456,0.506,0.756,0.886,0.754,0.707,0.759
COR-L 105,0.523,0.598,0.426,0.45,0.337,,,,,,0.428,0.479,0.511,0.454,0.489,0.401,0.488,0.478,0.463,0.333
IA-LM,,,,,,,,,,,,,,,,0.337,0.462,0.41,0.38,0.303
ABC-1,,0.264,0.234,0.217,0.249,1.24,1.03,0.986,1.1,0.909,,,,,,,0.76,0.787,0.643,0.265
SK-LU-1,0.607,0.594,0.471,0.413,0.454,,,,,,0.452,0.453,0.458,0.382,0.442,0.543,0.554,0.674,0.685,0.719
NCI-H2228,0.423,0.284,0.223,0.29,0.301,,,,,,0.699,0.681,0.398,0.434,0.553,0.306,0.294,,0.227,0.448
NCI-H1648,,,,,,,0.575,0.681,0.574,0.663,,0.553,0.68,0.53,0.73,,,,,
NCI-H1623,0.601,0.624,0.636,0.511,0.616,,,,,,,,,,,,,,,
NCI-H1563,0.642,0.705,0.75,0.517,0.623,,,,,,,,,,,0.605,0.651,0.62,0.624,0.646
NCI-H1703,,,,,,0.138,0.139,0.135,0.112,0.132,,,,,,0.291,0.309,0.29,0.291,0.226
NCI-H1299,,,,,,,,,,,,,,,,0.834,0.98,0.9,0.645,0.479
NCI-H522,0.708,0.696,0.638,0.617,0.669,1.02,0.986,0.97,0.985,1.07,1.07,0.749,0.725,0.899,1.21,,,,,
UMC-11,0.333,0.318,0.287,0.293,0.266,,,,,,0.552,0.687,0.727,0.77,0.572,0.864,0.972,0.806,0.716,0.902
SK-MES-1,0.699,0.615,0.616,0.574,0.451,,,,,,0.564,0.574,0.595,0.57,0.616,0.424,0.34,0.362,0.378,0.414
NCI-H2342,0.526,0.588,0.585,0.569,0.577,,0.441,0.366,0.46,0.386,,0.773,0.9,0.823,0.801,,,,,
NCI-H520,0.661,0.567,0.56,0.391,0.391,,,,,,0.798,0.622,0.739,0.505,0.762,0.302,0.31,0.28,0.258,0.361
A549,0.181,0.219,0.144,0.125,0.0802,,,,,,,,,,,0.428,0.517,0.553,0.464,0.0878
NCI-H2023,0.384,0.481,0.404,0.329,0.301,,,,,,0.5,0.563,0.516,0.415,0.467,,0.269,0.262,,0.252
SW 1573,0.485,0.426,0.376,0.397,0.387,,,,,,0.67,0.559,0.522,0.211,0.367,0.534,0.42,0.521,0.498,0.497

# — the supplement of paper PMC10307832
